From PubChem BioAssay (NCI)
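Dose response: 5 concentrations. Exposure: 48 h. Format: 96-well plates. Endpoint: linear interpolation; highest concentration if not reached. TGI: concentration producing complete growth inhibition.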

Key:
Experiment in all cases: NCI-60 cell line screen, 48 h
[1] = system: A498 renal
[2] = system: ACHN renal
[3] = system: HT29 colon
[4] = system: NCI-H460 lung
[5] = system: OVCAR-5 ovarian
[6] = system: RXF 393 renal
[7] = system: SF-268 CNS
[8] = system: SF-539 CNS
[9] = system: SK-MEL-28 melanoma
[10] = system: T-47D breast

SMILES | TGI [1] | TGI [2] | TGI [3] | TGI [4] | TGI [5] | TGI [6] | TGI [7] | TGI [8] | TGI [9] | TGI [10]
OC1(c2ccc(Cl)cc2)c2c(ccc3c2OCO3)C2=NCCN21 (configuration not stated) | 48.2 µM | > 100 µM | 91.5 µM | > 100 µM | > 100 µM | 86 µM | > 100 µM | > 100 µM | 34.6 µM | > 100 µM
COc1cc(/C=C2/SC(c3ccccc3)N(c3cccc(Cl)c3)C2=O)cc(OC)c1OC (configuration not stated) | > 100 µM | > 100 µM | 72.6 µM | > 100 µM | > 100 µM | 53.1 µM | > 100 µM | 43 µM | 90.1 µM | > 100 µM
O=C1CS(=O)(=O)C(c2cccc(Oc3ccccc3)c2)N1c1cccc(Cl)c1 (configuration not stated) |  | 59.5 µM | > 100 µM | 41.3 µM | > 100 µM | 52.7 µM | 76.7 µM | 37.4 µM | > 100 µM | > 100 µM
O=c1cc(-c2ccc(O)cc2)n(C2CC2)c2ccccc12 |  | 5.99 µM | 9.25 µM | 17.3 µM | 19.4 µM | 8.42 µM | 24.5 µM | 18.9 µM |  | 20.7 µM
CCCCCCCCCCCCCCCc1ccc(OCC(O)CO)cc1 (configuration not stated) | > 100 µM | > 100 µM | 46.1 µM | 53.6 µM | > 100 µM | 35.4 µM | 82.4 µM | > 100 µM | 62.2 µM | 
Nc1cc2c(nnn2C2OC(COCc3ccccc3)C(OCc3ccccc3)C2OCc2ccccc2)c(=O)[nH]1 (configuration not stated) | > 100 µM | > 100 µM | 41.8 µM | 92.3 µM | > 100 µM | 39.5 µM | > 100 µM | 69.5 µM | > 100 µM | > 100 µM
N#Cc1c2c(c(Nc3cccc(C(F)(F)F)c3)n3c1nc1ccccc13)CCC2 | > 100 µM | > 100 µM | > 100 µM |  | > 100 µM | > 100 µM | > 100 µM | > 100 µM | > 100 µM | > 100 µM
CS(=O)(=O)OC1CN2CCC1CC2 (configuration not stated) | > 100 µM | > 100 µM | > 100 µM | > 100 µM | > 100 µM | > 100 µM | > 100 µM |  | > 100 µM | > 100 µM
Cc1ccc(NP(=O)(Oc2ccccc2)N(CCCl)CCCl)cc1 (configuration not stated) | > 100 µM | > 100 µM | > 100 µM |  | > 100 µM |  | > 100 µM | > 100 µM | > 100 µM | 
Cc1cc2c(cc1Cl)SC(c1ccccc1)C(=O)NS2(=O)=O (configuration not stated) | 75.5 µM | > 100 µM | > 100 µM | 86.1 µM | > 100 µM | > 100 µM | > 100 µM | 73.3 µM | > 100 µM | 84.6 µM
N#CC(c1ccnc(Cl)n1)c1nc2ccccc2s1 (configuration not stated) | 46.7 µM | > 94 µM | 10.3 µM | > 100 µM | > 92.5 µM | > 62.7 µM | > 63.6 µM | 15.1 µM | > 100 µM | 22.4 µM
CC(=O)c1c(SCCN2CCCC2)n(-c2ccccc2)c(=S)n(-c2ccccc2)c1=O | 27.7 µM | 3.46 µM | 20.7 µM | > 46.6 µM | > 100 µM | 5.63 µM | 33.2 µM | 12.5 µM | 14.2 µM | 5.42 µM
CCN(CC)CCCC(C)Nc1ccnc2cc3ccccc3cc12 (configuration not stated) | 39.9 µM | 21 µM |  | 24.4 µM | > 100 µM | 31.4 µM | 22.1 µM | > 100 µM |  | 89.7 µM
Cc1cccc2cc3c(ccc4ccccc43)c[n+]12 |  | > 100 µM | > 100 µM | 93.7 µM | > 100 µM | > 100 µM | 14.2 µM | 66.2 µM | 34.3 µM | 
Nc1ccc(-c2cssc2=S)cc1 |  | > 100 µM | > 100 µM | > 100 µM | > 100 µM | > 100 µM | > 100 µM | > 100 µM | > 100 µM | 
Cn1c(-c2cccs2)cc(-c2ccccc2)c1-c1cccs1 | > 100 µM | > 100 µM | > 100 µM | > 100 µM | > 100 µM | > 100 µM | > 100 µM | > 100 µM | > 100 µM | > 100 µM
CC(=O)Nc1ccc(N=C2C(c3ccccc3)=C(SC3=C(c4ccccc4)C(=Nc4ccc(NC(C)=O)cc4)c4ccccc43)c3ccccc32)cc1 | 87.1 µM | > 100 µM | > 100 µM | > 100 µM | > 100 µM | 82.8 µM | > 100 µM | 28.5 µM | > 100 µM | 48.4 µM
CN(C)c1nc(N(C)C)nc(N(C)CN(C)c2ccc(Cl)cc2)n1 |  | > 100 µM | > 100 µM | > 100 µM |  | > 100 µM | > 100 µM | > 100 µM | > 100 µM | 
CO/C=C(/C(=O)OC)c1ccccc1[C@@H]1CC1c1cccc(F)c1 (some centres not stated) | 95.9 µM | 62.7 µM | > 100 µM | > 100 µM | > 100 µM | > 100 µM | > 100 µM | 58.1 µM | > 100 µM | > 100 µM
O=C(N/N=C(/COc1ccc(Cl)cc1)N=Cc1cccnc1)c1ccncc1 | > 100 µM | > 100 µM | > 100 µM | > 100 µM | > 100 µM | > 100 µM | > 100 µM | > 100 µM | > 100 µM | > 100 µM
CCN1C=C/C(=C\C=C/c2cc[n+](CC)c3ccccc23)c2ccccc21 | 8.78 µM | 33.8 µM | 13.8 µM | 11 µM | 15.1 µM | 70.3 µM | 19.6 µM | 9.08 µM | 21.8 µM | 28 µM
